Where two headings read alike, the source gives them in different places.
Key:
[1] = tested on: oral care and wound care pathogens; settings: background statement, organism not given; cited from earlier work
[2] = tested on: mice; settings: cited from earlier work
[3] = tested on: aquatic and terrestrial organisms; settings: cited from earlier work
[4] = tested on: common oral care and wound care pathogens; assay: In vitro broad spectrum comparison against common oral care and wound care pathogens, silver as positive control; assay type: cell-based; settings: for broad spectrum antimicrobial activity compared with silver: in vitro, common oral care and wound care pathogens
Procedure: The MIC of the antimicrobials was from literature review as well as in vitro studies in our lab with the five major oral care and five major wound care pathogens. In the literature typically only one bacteria was tested, thus, it was difficult to ascertain whether the target was a broad spectrum antimicrobial. Oral care pathogens tested include: Fusobacterium nucleatum ss vincentii, Porphyromonas gingivalis, Prevotella intermedia, Aggregatibacter actinomycetemcomitans and Streptococcus mutans. Wound care pathogens included: Pseudomonas aeruginosa, Streptococcus pyogenes, Staphylococcus aureus, Enterococcus faecalis, and Proteus mirabilis. For the JMP® SAS analysis the antimicrobial scoring was based on the MIC in μg/ml using the following point scale: 5) 1-10 μg/ml, 4) 11-25 μg/ml, 3) 26-50 μg/ml, 2) 51-100 μg/ml, 1) >101, and ND for not determined.
In order to directly compare the top potential Ecofriendly antimicrobial candidates from the JMP SAS multivariate analysis described above, we examined how some of these compounds (aloesin, zinc pyrithione, cinnamon, lemongrass, manuka honey, peppermint, jojoba oil) performed against common oral care and wound care pathogens, using silver as a positive control. […] Zinc pyrithione is commonly used as an antibacterial and antifungal, is safe for human use, and is a common ingredient in dandruff shampoo.

[5] = tested on: aquatic and terrestrial organisms; assay: Eco-friendliness from ECOTOX database records; settings: point scale 5 to 1 from number of ECOTOX references
Description: Eco-friendliness ratings were based on the number of references from the ECOTOX database. The scoring used the following point scale: 5) no toxicity to aquatic and terrestrial organisms, 4) 1-10 result records, 3) 11-25, 2) 26-50, 1) >51, and ND for not determined. Commonly used compounds such as Triclosan and silver were given an unacceptable Ecofriendly score of 1.

[6] = US EPA ecotoxicology database, aquatic environment

Compound | microbial inhibitory concentration (MIC) [1] [µg/mL] | LD50 [2] [mg/day] | number of records/references in the ECOTOX database [3, 6] | log reduction of most bacterial pathogens ([4]; planktonic bacterial and bacterial biofilms) [fold log reduction] | number of records/references in the ECOTOX database [3] | broad spectrum antimicrobial activity compared with silver [4] | Ecofriendly (ecotoxicology) score [5]
Oc1cc(Cl)ccc1Oc1ccc(Cl)cc1Cl [Triclosan, 5-Chloro-2-(2,4-dichlorophenoxy)phenol] | 125 | 1.5 | 513 | – | – | – | –
silver | 7.5 | – | – | 5 | 5,266 | – | –
CC(=O)Cc1cc(=O)c2c(C)cc(O)c([C@@H]3O[C@H](CO)[C@@H](O)[C@H](O)[C@H]3O)c2o1 [aloesin] | – | – | – | – | – | inferior to silver | –
zinc pyrithione | – | – | 151 | – | – | better than silver | 1 (>51)

Source: patent publication US11547651B2, “Ecofriendly biofilm-disrupting antimicrobial formulations, their development, and their uses” (Alira Health Boston LLC, priority 2017, dated 2023)
